Results reported in patent publication US5866775A, “Glyphosate-tolerant 5-enolpyruvyl-3-phosphoshikimate synthases” (Monsanto Company, priority 1990, dated 1999).

What was measured:
[1] = system: petunia leaf disks transformed with pMON546 (CaMV35S/EPSP synthase gene); test: Leaf disk callus growth on glyphosate medium, transformed disks; assay type: cell-based; details: within 10 days
Experimental: Leaf disks with diameters of 6 mm (1/4 inch) were taken from surface-sterilized petunia leaves. They were cultured on MS104 agar medium for 2 days to promote partial cell wall formation at the wound surfaces. They were then submerged in a culture of A. tumefaciens cells containing both pMON546 and GV3111-SE which had grown overnight in Luria broth at 28° C., and shaken gently. The leaf disks were removed from the bacterial suspension, blotted dry, and incubated upside down on filter paper placed over "nurse" cultures of tobacco cells, as described by Horsch (1980). After 2 or 3 days, the disks were transferred to petri dishes containing MS media with 500 μg/ml carbenicillin and 0. 0.1, 0.25, or 0.5 mM glyphosate (sodium salt), with no nurse cultures.

[2] = biological target: T1, EPSPS in crude extracts of tobacco plants transformed with pMON10079 (Petunia hybrida, UniProt P11043, A264T/G173A); test: EPSPS assay of crude plant extracts in the presence of glyphosate; assay type: biochemical; details: 1.0 mM glyphosate; eleven transformed plants
T1 construct: an alanine to threonine substitution at position 192 of the mature EPSPS enzyme has also been introduced into other plant species such as tobacco; expressed in transfected cells; host or cells: transgenic tobacco plants (pMON10079), crude plant extracts
T1 sequence (P11043 73-516 G173A/A264T): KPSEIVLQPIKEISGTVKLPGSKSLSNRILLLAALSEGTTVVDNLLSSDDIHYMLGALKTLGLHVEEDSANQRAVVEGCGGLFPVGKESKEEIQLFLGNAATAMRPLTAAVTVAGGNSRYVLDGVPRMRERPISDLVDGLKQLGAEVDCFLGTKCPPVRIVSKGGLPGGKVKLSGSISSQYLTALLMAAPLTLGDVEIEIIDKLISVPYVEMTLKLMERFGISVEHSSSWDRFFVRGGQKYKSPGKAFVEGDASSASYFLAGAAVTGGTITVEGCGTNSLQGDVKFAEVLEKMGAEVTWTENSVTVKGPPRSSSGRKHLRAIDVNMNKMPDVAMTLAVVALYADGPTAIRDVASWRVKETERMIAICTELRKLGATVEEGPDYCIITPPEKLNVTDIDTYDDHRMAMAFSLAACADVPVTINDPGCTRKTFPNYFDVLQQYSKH
Text: Thus, the petunia EPSPS variant with the glycine to alanine substitution at position 101 and the alanine to threonine substitution at position 192 does confer glyphosate tolerance to transformed plants.

[3] = system: petunia plants transformed with pMON546 (CaMV35S/wild-type petunia EPSP synthase); test: Plant response to glyphosate spraying, chimeric EPSPS plants; assay type: in vivo; details: 0.8 #/acre acid equivalent (0.897 kg/hectare), isopropylamine salt, spray
Text: Transformed petunia plants were produced by regeneration from the above-described transformed leaf disks by the procedure described by Horsch, et al. (1985). The transformed plants obtained contained the pMON546 vector, described hereinabove, which contains the CaMV35S promoter fused to the wild-type petunia EPSP synthase gene.
Four individual representative transgenic seedlings were selected, grown and tested in the testing procedure described below, along with four individual non-transformed (wild-type) petunia seedlings.
The plants were grown in a growth medium in a growth chamber at 26° C. with 12 hours of light per day. The plants were fertilized weekly with a soluble fertilizer and watered as needed. The plants were sprayed at a uniform and reproducible delivery rate of herbicide by use of an automated track sprayer. The glyphosate solution used was measured as pounds of glyphosate acid equivalents per acre, mixed as the glyphosate isopropylamine salt, with an ionic surfactant.
Four individual wild-type (non-transformed) petunia plants were selected for use as control plants. Four individual transformed plants containing the pMON546 vector were selected by kanamycin resistance as described by Horsch, et al. (1985). […]

## O=C(O)CNCP(=O)(O)O [glyphosate, N-phosphonomethylglycine]
[1]; 0.1 mM glyphosate (sodium salt)
  callus growth, transformed versus control disks: little detectable difference between the control disks and the transformed tissue
[1]; 0.25 mM glyphosate (sodium salt)
  callus growth: substantial growth of transformed tissue occurred
[1]; 0.5 mM glyphosate (sodium salt)
  callus growth: a significant number of calli grew from the transformed disks
[2]
  glyphosate resistance of plant EPSPS: all eleven exhibited glyphosate resistance
[3]
  Visual Appearance: growing well
